Experiment [1] has as its target fVIIa-sTF (Homo sapiens, UniProt P08709). As to the kind of experiment: fVIIa-sTF inhibitory assay. The experiment is classed as biochemical. Particulars: for EC50: 95% confidence using GraphPad Prism 7; for Thrombin/FVIIa-sTF EC50 Ratio: thrombin EC50 divided by fVIIa-sTF EC50. How it is done: The compounds isolated from M. aeruginosa K139 were subjected to fVIIa-sTF and thrombin assays at 10 μg/mL and 100 μg/mL. […] Our microviridin B was isolated from the strain of M. aeruginosa K139. […] We used ethanol or water as negative controls.
The fVIIa-sTF and thrombin assays have been previously described in previous papers. […] A 1 mg/mL EtOH solution was prepared and independently diluted to make 750, 500, 250, 100, 75, 50, 25, 10, 5.0, 2.5, and 1.0 μg/mL. The same experimental procedure was done in all fVIIa-sTF and thrombin assays as previously described. A 20-μL solution was added in each well, in replicate, to make a final concentration of 100, 75, 50, 250, 100, 75, 50, 25, 10, 5.0, 2.5, and 1.0 μg/mL.

Experiment [2] deals with T1, thrombin (Homo sapiens, UniProt P00734).
T1 construct: subjected to fVIIa-sTF and thrombin assays
Description: thrombin inhibitory assay. The class given is biochemical. Particulars: for thrombin inhibition (in words): at 10 μg/mL and 100 μg/mL (low and high doses). The procedure:
The compounds isolated from M. aeruginosa K139 were subjected to fVIIa-sTF and thrombin assays at 10 μg/mL and 100 μg/mL. […] The micropeptin K139 gave a favorable fVIIa-sTF activity at 10 μg/mL and 100 μg/mL with inhibitory activity greater than 50% and 85%, respectively. […] The EC50 of each compound was computed by GraphPad Prism 7 [34], with 95% confidence. […] A difference in activity for the same compound may be attributed to the different cyanobacterial strains used in the study. Our microviridin B was isolated from the strain of M. aeruginosa K139. Okino’s group isolated the compound from the NIES-102 cyanobacterial strain. […]. […] We used ethanol or water as negative controls.
The fVIIa-sTF and thrombin assays have been previously described in previous papers. The half maximal effective concentration (EC50) compounds isolated from M. aeruginosa K139 was done in three plates, with two replicates in each of plate. A 1 mg/mL EtOH solution was prepared and independently diluted to make 750, 500, 250, 100, 75, 50, 25, 10, 5.0, 2.5, and 1.0 μg/mL. The same experimental procedure was done in all fVIIa-sTF and thrombin assays as previously described. A 20-μL solution was added in each well, in replicate, to make a final concentration of 100, 75, 50, 250, 100, 75, 50, 25, 10, 5.0, 2.5, and 1.0 μg/mL. The EC50 was calculated from GraphPad Prism 7^© [34], with 95% confidence.

For experiment [3], the target named is T1, thrombin. As to conditions: literature, cited from earlier work.
For experiment [4], the system named is chymotrypsin. Set-up: method as in PMID 19260658. Particulars: literature; cited from earlier work.
[5] abbreviates: 95% confidence using GraphPad Prism 7, read-out: Thrombin: EC50.

The structures appear in SMILES notation. “And” between values parts separate entries of the source, which are not always exact repeats. Equal entries are not always repeated. Where two headings read alike, the source gives them in different places.

Usually EC50 stands for the concentration that produces a half-maximal response. Usually inhibition stands for how much of the control response was suppressed.

Chain of fVIIa-sTF (P08709 61-212 limits assumed): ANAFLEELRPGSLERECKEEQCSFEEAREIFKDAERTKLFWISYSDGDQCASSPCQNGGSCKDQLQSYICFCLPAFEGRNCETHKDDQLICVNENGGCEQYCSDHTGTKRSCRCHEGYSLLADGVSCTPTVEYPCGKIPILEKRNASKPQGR
Chain of fVIIa-sTF (P08709 213-466 limits assumed): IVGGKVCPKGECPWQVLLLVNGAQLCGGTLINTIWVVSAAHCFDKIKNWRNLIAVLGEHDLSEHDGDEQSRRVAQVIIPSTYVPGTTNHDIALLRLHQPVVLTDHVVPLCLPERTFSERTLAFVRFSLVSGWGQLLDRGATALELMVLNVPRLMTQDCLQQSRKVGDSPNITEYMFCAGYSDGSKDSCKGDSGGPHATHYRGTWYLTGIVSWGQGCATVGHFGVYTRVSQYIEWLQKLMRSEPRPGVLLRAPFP
Chain of fVIIa-sTF (P13726 33-251 partner limits assumed): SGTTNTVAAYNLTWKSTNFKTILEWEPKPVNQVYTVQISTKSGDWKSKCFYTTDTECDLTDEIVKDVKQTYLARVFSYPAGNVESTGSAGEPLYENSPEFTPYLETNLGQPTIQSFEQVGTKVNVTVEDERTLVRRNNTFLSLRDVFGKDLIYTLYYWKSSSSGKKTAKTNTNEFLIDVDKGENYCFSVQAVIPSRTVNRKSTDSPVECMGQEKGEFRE

On to `CC[C@H](C)[C@@H]1NC(=O)[C@H](Cc2ccc(O)cc2)N(C)C(=O)[C@H](CC(C)C)N2C(=O)[C@H](CC[C@H]2O)NC(=O)[C@H](Cc2ccc(O)cc2)NC(=O)[C@@H](NC(=O)[C@H](CCC(N)=O)NC(=O)[C@H](O)Cc2ccc(O)cc2)[C@@H](C)OC1=O` [917S-A], for which the “fVIIa-sTF inhibitory activity (in words)” value in experiment [1] (at 100 μg/mL) was “negative inhibitory activity”.

Regarding `CCC(C)C1NC(=O)C(Cc2ccc(O)cc2)N(C)C(=O)C(CC(C)C)N2C(=O)C(CCC2O)NC(=O)C(CC2C=CC(O)CC2)NC(=O)C(NC(=O)C(CCC(N)=O)NC(=O)C(O)Cc2ccc(O)cc2)C(C)OC1=O` (stereo not drawn) [917S-B], in experiment [1] (at 100 μg/mL), the “fVIIa-sTF inhibitory activity (in words)” value was “negative inhibitory activity”.

As for `CC[C@H](C)[C@@H]1NC(=O)[C@H](Cc2ccc(O)cc2)N(C)C(=O)[C@H](CC(C)C)N2C(=O)[C@H](CC[C@H]2O)NC(=O)[C@H](CC(C)C)NC(=O)[C@@H](NC(=O)[C@H](CCC(N)=O)NC(=O)[C@H](O)Cc2ccc(O)cc2)[C@@H](C)OC1=O` [917S-C], in experiment [1] (at 100 μg/mL), the “fVIIa-sTF inhibitory activity (in words)” value is reported as “negative inhibitory activity”.

In the case of `N=C(N)c1ccc(CS(=O)(=O)F)cc1` [APMSF, 4-amidinophenylmethanesulfonylfluoride], the EC50 in experiment [2] was 2.1 µM.

For `CC(C)CC(NC(=O)C(O)Cc1ccc(O)cc1)C(=O)N1C(C(=O)NC2CCCN(C(=N)N)C2O)CC2CCC(O)CC21` [Aeruginosin K139, L-Hpla-L-Leu-L-Choi-L-Argal], the EC50 in experiment [2] (setting [5]) was 0.66 µM; in experiment [1], 166 µM and ~166 µM. Also, in experiment [2], the “thrombin inhibition (in words)” value is reported as “inhibited thrombin”. Further, in experiment [1] (at 100 μg/mL), the “fVIIa-sTF inhibitory activity (in words)” value is “active”. Moreover, in experiment [1], the “Thrombin/FVIIa-sTF EC50 Ratio” value stood at 0.004.

With `CC(=O)N[C@@H](CC(C)C)C(=O)N[C@@H](CC(C)C)C(=O)N[C@H](C=O)CCCNC(=N)N` [Leupeptin], the EC50 in experiment [2] (setting [5]) was found to be 18.3 µM; in experiment [1], 14 µM. In experiment [1], the “Thrombin/FVIIa-sTF EC50 Ratio” value worked out at 1.31.

Take `CCCCCC(=O)N[C@@H](CC(=O)O)C(=O)N[C@@H]1C(=O)N[C@@H](CCCNC(=N)N)C(=O)N[C@H]2CC[C@@H](O)N(C2=O)[C@@H]([C@@H](C)CC)C(=O)N(C)[C@@H](Cc2ccc(O)cc2)C(=O)N[C@@H]([C@@H](C)CC)C(=O)O[C@@H]1C` [Micropeptin K139]: the EC50 in experiment [2] (setting [5]) turned out to be 26.9 µM; in experiment [1], 10.6 µM. The “thrombin inhibition (in words)” value in experiment [2] is “inhibited thrombin”. In addition, the inhibition at 10 µg/mL in experiment [1] (at 10 μg/mL) was more than 50%. Besides, the inhibition at 100 µg/mL in experiment [1] (at 100 μg/mL) is more than 85%. The results for the “Thrombin/FVIIa-sTF EC50 Ratio” value in experiment [1] and in experiment [1] (listed as micropeptin K139) were 2.54 and “greater than one”, respectively.

For the molecule `CCCCCCCC(=O)N[C@@H](CCC(=O)O)C(=O)N[C@@H]1C(=O)N[C@@H](CCCCN)C(=O)N[C@H]2CC[C@@H](O)N(C2=O)[C@@H](CC(C)C)C(=O)N(C)[C@@H](Cc2ccc(O)cc2)C(=O)N[C@@H](C(C)C)C(=O)O[C@@H]1C` [micropeptin A], the “thrombin inhibitory assay (in words)” value in experiment [3] was “inactive”; in experiment [3] (listed as Micropeptin A) it was “does not inhibit thrombin”.

As to `CCCCCC(=O)N[C@@H](CCC(=O)O)C(=O)N[C@@H]1C(=O)N[C@@H](Cc2ccc(O)cc2)C(=O)N[C@H]2CC[C@@H](O)N(C2=O)[C@@H](Cc2ccccc2)C(=O)N(C)[C@@H](Cc2ccc(O)cc2)C(=O)N[C@@H](C(C)C)C(=O)O[C@@H]1C` [micropeptin C], the “chymotrypsin EC50” value in experiment [4] was 1.1 µg/mL.

`CCCCCCCC(=O)N[C@@H](CCC(=O)O)C(=O)N[C@@H]1C(=O)N[C@@H](Cc2ccc(O)cc2)C(=O)N[C@H]2CC[C@@H](O)N(C2=O)[C@@H](Cc2ccccc2)C(=O)N(C)[C@@H](Cc2ccc(O)cc2)C(=O)N[C@@H](C(C)C)C(=O)O[C@@H]1C` [micropeptin D]: the “chymotrypsin EC50” value in experiment [4] was 1.2 µg/mL.

On to `CCCCCC(=O)N[C@@H](CCC(=O)O)C(=O)N[C@@H]1C(=O)N[C@@H](Cc2ccc(O)cc2)C(=O)N[C@H]2CC[C@@H](O)N(C2=O)[C@@H](CC(C)C)C(=O)N(C)[C@@H](Cc2ccc(O)cc2)C(=O)N[C@@H](C(C)C)C(=O)O[C@@H]1C` [micropeptin E], for which, in experiment [4], the “chymotrypsin EC50” value is 1.0 µg/mL.

As for `CCCCCCCC(=O)N[C@@H](CCC(=O)O)C(=O)N[C@@H]1C(=O)N[C@@H](Cc2ccc(O)cc2)C(=O)N[C@H]2CC[C@@H](O)N(C2=O)[C@@H](CC(C)C)C(=O)N(C)[C@@H](Cc2ccc(O)cc2)C(=O)N[C@@H](C(C)C)C(=O)O[C@@H]1C` [micropeptin F], the “chymotrypsin EC50” value in experiment [4] was 1.5 µg/mL.
